Measurements reported in patent publication US10463664B2, “Inhibitors of HSV nucleotidyl transferases and uses therefor” (Saint Louis University, priority 2013, dated 2019).

Columns and labels:
HSV-1 [1] = test: Anti-HSV-1 replication assay in Vero cells, titer by plaque assay; type: cell-based, herpes simplex virus 1; settings: for Anti-HSV-1 Log10 suppression 5 μM (screening symbol) / Anti-HSV-1 Log10 suppression 50 μM (screening symbol): visual inspection; for Anti-HSV-1 Log10 suppression 5 μM / Anti-HSV-1 Log10 suppression 50 μM: moi 0.1, 24 h, relative to DMSO; for Inhibition of HSV-1 replication (in words): primary screening
Protocol: (§1) Anti-HSV-1 and -HSV-2 Replication Assay. Compounds to be screened were diluted in PBS supplemented to contain 2% newborn calf serum and 1% glutamine, and added in 100 μL, volume to confluent cell monolayers in 24-well cluster plates. Immediately thereafter HSV-1 and HSV-2, diluted in the supplemented PBS medium, were added to the wells in 50 μl volume such that the final concentration of compound was 50 μM and 5 μM and the multiplicity of infection was 0.1. The plates were incubated at 37° C. for 1 hour and then virus-containing inoculum was removed and the wells were washed once in PBS. Compounds, diluted to 50 μM and 5 μM in DMEM supplemented to contain 2% newborn calf serum and 1% each penicillin/streptomycin, were added at 0.5 mL/well. Plates were incubated at 37° C. an additional 23 hr, and then the plates were visually inspected through a phase contrast microscope for cytopathic effect, and for toxic effect. […] The entire contents of each well were collected by scraping. Samples were frozen at −80° C., and then subsequently thawed, sonicated, and infectious virus titer was determined by standard plaque assay on Vero cell monolayers. Because the compounds were dissolved at 10 mM in 100% DMSO, equivalent dilutions of DMSO were added to additional wells as a control for effects of the diluent. Each experiment was repeated once. EC50 values were determined as above except that serial dilutions of the compound to be tested were prepared starting at 50 μM. The inhibitory values were calculated by non-linear curve-fitting in GraphPad Prism.
(§2) Monolayers were microscopically inspected 24 hours post-infection and wells in which more cells were visually healthier than the DMSO-treated controls were collected. Viral titers in the culture lysates were then determined by standard plaque assay on Vero cells. Inhibition of viral replication was categorized as <1 log10 relative to the DMSO-treated control, 1 to 3 log10 suppression, or ≥3 log10 suppression. […] Additionally, four polyoxygenated heterocycle compounds were tested (#128, 138, 139, 140).

HBV RNaseH = molecular target: T1, HBV RNaseH (Hepatitis B virus genotype A2 subtype adw2, UniProt P03159); test: Biochemical inhibition of HBV RNaseH (oligonucleotide-directed RNA cleavage assay); settings: compounds at 60, 20 or 10 μM
T1 construct: One of the inventors recently produced active recombinant HBV RNase H; hexahistidine; made in house; host or cells: E. coli
Protocol: (§3) Biochemical inhibition of HBV RNaseH and human RNaseH1 activity. […] RNaseH activity was measured using an oligonucleotide-directed RNA cleavage assay in which a DNA oligonucleotide is annealed to an internally ^32P-labeled RNA, the RNA:DNA heteroduplex is incubated with the enzyme to permit cleavage, and then the RNA cleavage products are resolved by electrophoresis and detected by autoradiography. The compounds were included in the reaction mixes at 60, 20, or 10 μM and the amount of the RNA cleavage products in the compound-containing reactions was compared to reactions in which an equivalent concentration of DMSO was added as a vehicle control. The data were quantified using ImageJ.

HSV-2 [2] = test: Anti-HSV-2 replication assay in Vero cells, titer by plaque assay; type: cell-based, herpes simplex virus 2; settings: for Anti-HSV-2 Log10 suppression 5 μM (screening symbol) / Anti-HSV-2 Log10 suppression 50 μM (screening symbol): visual inspection; for Anti-HSV-2 Log10 suppression 5 μM / Anti-HSV-2 Log10 suppression 50 μM: moi 0.1, 24 h, relative to DMSO; for Inhibition of HSV-2 replication (in words): primary screening
Protocol: as §1, §2

human RNaseH1 = molecular target: T2, human RNaseH1 (Homo sapiens, UniProt O60930); test: Biochemical inhibition of human RNaseH1 (oligonucleotide-directed RNA cleavage assay); settings: compounds at 60, 20 or 10 μM
T2 construct: hexahistidine; made in house; host or cells: E. coli
T2 sequence (O60930 1-286): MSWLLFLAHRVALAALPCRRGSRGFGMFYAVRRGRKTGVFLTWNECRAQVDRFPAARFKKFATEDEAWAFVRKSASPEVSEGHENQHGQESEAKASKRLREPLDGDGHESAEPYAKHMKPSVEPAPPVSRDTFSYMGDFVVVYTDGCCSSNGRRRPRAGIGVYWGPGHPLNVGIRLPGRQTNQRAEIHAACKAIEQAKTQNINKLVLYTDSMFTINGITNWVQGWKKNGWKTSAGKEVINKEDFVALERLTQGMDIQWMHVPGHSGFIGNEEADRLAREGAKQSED
Protocol: as §3

HSV-2 [3] = test: HSV-2 replication inhibition in primary human foreskin fibroblasts; type: cell-based, herpes simplex virus 2; parameters: key to Replication inhibition HSV-2 50 μM (not quantified): NQ: Not quantified due to visible toxicity; settings: HFF cells; for Replication inhibition HSV-2 5 μM / Replication inhibition HSV-2 50 μM: relative to DMSO-treated control
Protocol: as §1
(§4) Inhibition of viral replication was next assessed in human foreskin fibroblasts (HFF) to determine whether NTS inhibitors could block HSV-1 and HSV-2 replication in a physiologically relevant, primary human cell type. […] Viral yields 24 hours post-infection were measured by plaque assay.

[4] = tested on: primary human foreskin fibroblasts; test: in vitro
Protocol: Toxicity Assays. Qualitative assessments of cytotoxicity were done visually by inspecting the cells in the primary screening assays. For the quantitative assays, cells were plated in 96-well plates at 1.0×10^4 per well. The next day the compounds were added at 0.78 to 100 μM in a final concentration of 1% (v/v) DMSO, and the cells were incubated for 24 hours under conditions identical to those employed for the viral replication inhibition assays. Mitochondrial toxicity was measured by incubating the cells with 0.25 mg/mL thiazolyl blue tetrazolium bromide (MTT, SigmaAldrich Chemical Co.), the cultures were incubated for 60 min, metabolites were solubilized in acidic isopropanol, and absorbance was read at 570 nm. Cellular lysis was measured by detecting release of intracellular proteases with the CytoTox-Glo assay (Promega) according to the manufacturer's instructions. Percent viability was determined for each compound concentration from the maximal absorbance or luminosity data, and then CC50 values were calculated by non-linear curve fitting using GraphPad Prism.
as §4

HSV-1 [5] = test: HSV-1 replication inhibition in primary human foreskin fibroblasts; type: cell-based, herpes simplex virus 1; parameters: key to Replication inhibition HSV-1 50 μM (not quantified): NQ: Not quantified due to visible toxicity; settings: HFF cells; for Replication inhibition HSV-1 5 μM / Replication inhibition HSV-1 50 μM: relative to DMSO-treated control
Protocol: as §1, §4

Vero cells = test: Qualitative (visual) cytotoxicity assessment in primary screening; type: cell-based; parameters: key to Vero cell toxicity Qualitative: T: visual evidence of toxicity at 50 μM; settings: for Vero cell toxicity Qualitative: visual, 50 μM
Protocol: Compound Cytotoxicity. Compound cytotoxicity was measured both subjectively and quantitatively. Subjective assessments were done by visually inspecting the infected cells at the end of the 24 hours infection window through a phase-contrast microscope.

T1 sequence (P03159 693-845): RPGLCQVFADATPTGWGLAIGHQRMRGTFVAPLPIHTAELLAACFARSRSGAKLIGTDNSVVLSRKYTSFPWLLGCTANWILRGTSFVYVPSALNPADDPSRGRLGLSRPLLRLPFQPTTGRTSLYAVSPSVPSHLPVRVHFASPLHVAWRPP

Row | Anti-HBV RNaseH (HBV RNaseH) | Anti-Human RNaseH1 (human RNaseH1) | Structure (SMILES) | Anti-HSV-1 Log10 suppression 5 μM (HSV-1 [1]) [log10] | Anti-HSV-1 Log10 suppression 50 μM (HSV-1 [1]) [log10] | Anti-HSV-2 Log10 suppression 5 μM (HSV-2 [2]) [log10] | Anti-HSV-2 Log10 suppression 50 μM (HSV-2 [2]) [log10] | further results
1 | − (no inhibition at 60 μM) | − (no inhibition at 60 μM) | O=C1c2cccc3cccc(c23)C(=O)N1O [Compound 45] |  |  |  |  | Anti-HSV-1 Log10 suppression 5 μM (screening symbol) (HSV-1 [1]): −; Anti-HSV-1 Log10 suppression 50 μM (screening symbol) (HSV-1 [1]): −; Anti-HSV-2 Log10 suppression 5 μM (screening symbol) (HSV-2 [2]): −; Anti-HSV-2 Log10 suppression 50 μM (screening symbol) (HSV-2 [2]): −
2 | − (no inhibition at 60 μM) | + (inhibition at 60 μM) | CCOC(=O)c1cc2ccccc2n(O)c1=O [Compound 42] |  |  |  |  | Anti-HSV-1 Log10 suppression 5 μM (screening symbol) (HSV-1 [1]): −; Anti-HSV-1 Log10 suppression 50 μM (screening symbol) (HSV-1 [1]): −; Anti-HSV-2 Log10 suppression 5 μM (screening symbol) (HSV-2 [2]): −; Anti-HSV-2 Log10 suppression 50 μM (screening symbol) (HSV-2 [2]): −
3 | − (no inhibition at 60 μM) | +++ (inhibition at 10 μM) | O=c1c(O)c(-c2ccc(O)c(O)c2)oc2cc(O)c(O)c(O)c12 [Compound 7] | 0.44 | 0.48 | 0.03 | 1.26 | 
4 | − (no inhibition at 60 μM) | − (no inhibition at 60 μM) | CC(C)c1ccc(O)c(=O)cc1 [Compound 48, Gamma-thujaplicin] | 0.31 | 4.71 | 0.20 | 4.57 | Inhibition of HSV-1 replication (in words) (HSV-1 [1]): negligible inhibitors; Replication inhibition HSV-2 5 μM (HSV-2 [3]): 0.20 log10; Replication inhibition HSV-2 50 μM (HSV-2 [3]; 50 μM): 5.76 log10; CC50 [4]: > 100 µM; Inhibition of HSV-2 replication (in words) (HSV-2 [2]): negligible inhibitors; Replication inhibition HSV-1 5 μM (HSV-1 [5]): 0.05 log10; Replication inhibition HSV-1 50 μM (HSV-1 [5]; 50 μM): 5.99 log10
5 | − (no inhibition at 60 μM) | − (no inhibition at 60 μM) | O=C(Nc1ccc(O)c(=O)cc1)c1ccccc1 [Compound 52] | 0.07 | 2.02 | 0.10 | 1.34 | Inhibition of HSV-1 replication (in words) (HSV-1 [1]): negligible inhibitors; Replication inhibition HSV-2 5 μM (HSV-2 [3]): −0.01 log10; Replication inhibition HSV-2 50 μM (not quantified) (HSV-2 [3]; 50 μM): NQ; CC50 [4]: > 100 µM; Inhibition of HSV-2 replication (in words) (HSV-2 [2]): negligible inhibitors; Replication inhibition HSV-1 5 μM (HSV-1 [5]): 0.10 log10; Replication inhibition HSV-1 50 μM (not quantified) (HSV-1 [5]; 50 μM): NQ
6 | ++ (inhibition at 20 μM) | ++ (inhibition at 20 μM) | O=c1c(O)c(-c2cc(O)c(O)c(O)c2)oc2cc(O)cc(O)c12 [Compound 9] | 0.30 | 0.38 | −0.04 | 0.67 | 
7 | +++ (inhibition at 10 μM) | +++ (inhibition at 10 μM) | CN(C)c1ccc(-c2c3cc(O)c(=O)cc-3oc3cc(O)c(O)cc23)cc1 [Compound 35] |  |  |  |  | Anti-HSV-1 Log10 suppression 5 μM (screening symbol) (HSV-1 [1]): −; Anti-HSV-1 Log10 suppression 50 μM (screening symbol) (HSV-1 [1]): −; Anti-HSV-2 Log10 suppression 5 μM (screening symbol) (HSV-2 [2]): −; Anti-HSV-2 Log10 suppression 50 μM (screening symbol) (HSV-2 [2]): −
8 | ++ (inhibition at 20 μM) | +++ (inhibition at 10 μM) | Cc1c2cc(O)c(=O)cc-2oc2cc(O)c(O)cc12 [Compound 8] | −0.18 | 0.86 | 0.18 | 2.49 | 
9 | +++ (inhibition at 10 μM) | +++ (inhibition at 10 μM) | O=c1cc2oc3cc(O)c(O)cc3c(-c3ccccn3)c-2cc1O [Compound 39] | 0.19 | 0.22 | 0.12 | 0.17 | 
10 | − (no inhibition at 60 μM) | − (no inhibition at 60 μM) | O=c1ccc2ccccc2n1O [Compound 43] | 0.31 | 1.31 | 0.31 | 1.13 | 
11 |  |  | O=c1cc(NCc2ccccc2)c2cccnc2n1O [Compound 151] | 2.16 |  | 2.26 |  | Anti-HSV-1 Log10 suppression 5 μM (HSV-1 [1]; listed as #151): > 2.15 log10; Anti-HSV-2 Log10 suppression 5 μM (HSV-2 [2]; listed as #151): > 2.15 log10; Cytotoxicity at 50 μM (in words) (Vero cells): significant cytotoxicity; Vero cell toxicity Qualitative (Vero cells): T
12 | − (no inhibition at 60 μM) |  | CCOC(=O)c1sc(NC(=O)CSc2nccc(C)n2)c(C#N)c1C [Compound 27] |  |  |  |  | Anti-HSV-1 Log10 suppression 5 μM (screening symbol) (HSV-1 [1]): −; Anti-HSV-1 Log10 suppression 50 μM (screening symbol) (HSV-1 [1]): −; Anti-HSV-2 Log10 suppression 5 μM (screening symbol) (HSV-2 [2]): −; Anti-HSV-2 Log10 suppression 50 μM (screening symbol) (HSV-2 [2]): −; Vero cell toxicity Qualitative (Vero cells): T
13 |  |  | O=c1cc(NC2CCc3ccccc32)c2cccnc2n1O (stereo not drawn) [Compound 155] | 3.85 |  | 3.88 |  | Anti-HSV-1 Log10 suppression 5 μM (HSV-1 [1]; listed as #155): > 3.84 log10; Anti-HSV-2 Log10 suppression 5 μM (HSV-2 [2]; listed as #155): > 3.84 log10; Cytotoxicity at 50 μM (in words) (Vero cells): significant cytotoxicity; Vero cell toxicity Qualitative (Vero cells): T

Row | Structure (SMILES) | Anti-HBV RNaseH (HBV RNaseH) | Anti-Human RNaseH1 (human RNaseH1) | Anti-HSV-1 Log10 suppression 5 μM (HSV-1 [1]) [log10] | Anti-HSV-1 Log10 suppression 50 μM (HSV-1 [1]) [log10] | Anti-HSV-2 Log10 suppression 5 μM (HSV-2 [2]) [log10] | Anti-HSV-2 Log10 suppression 50 μM (HSV-2 [2]) [log10] | further results
14 | CC(C)c1cccc(O)c(=O)c1 [Compound 47, Beta-thujaplicin] | − (no inhibition at 60 μM) | − (no inhibition at 60 μM) | 0.31 | 1.86 | 0.22 | 1.38 | Inhibition of HSV-1 replication (in words) (HSV-1 [1]): negligible inhibitors; Replication inhibition HSV-2 5 μM (HSV-2 [3]): 0.08 log10; Replication inhibition HSV-2 50 μM (HSV-2 [3]; 50 μM): 5.16 log10; CC50 ([4]; read-out: Toxicity, CC50 by MTT assay, HFF cells, 24 h): > 100 µM; Inhibition of HSV-2 replication (in words) (HSV-2 [2]): negligible inhibitors; Replication inhibition HSV-1 5 μM (HSV-1 [5]): 0.02 log10; Replication inhibition HSV-1 50 μM (HSV-1 [5]; 50 μM): 5.06 log10
